The target in assay [1] is T1, human D2R/β-arrestin (Homo sapiens (Human), UniProt P14416). Kind of assay: β-Arrestin agonist assay (PathHunter). In kind it is cell-based. The settings on record: CHO-K1 cell line expressing human D2R/β-arrestin. In a few lines:
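Readout follows addition of Buffer:Emerald II:Galactor-Star reagent (19:5:1) to agonist-treated plates, measured as luminescence or fluorescence.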

Assay [2] has as its target T1, human D2R/β-arrestin. In words: Gi/cAMP agonist assay (Lance Ultra cAMP, Forskolin). It counts as cell-based. Particulars: CHO-K1 cell line expressing human D2R/β-arrestin. The procedure, abridged:
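Read-out was Lance Ultra competitive TR-FRET (Eu-cAMP tracer plus ULight-anti-cAMP) following forskolin-induced cAMP production. Before forskolin stimulation, compounds were pin-transferred onto the seeded cells for 10 min at 37 °C.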

Assay [3] concerns the target T1, human D2R/β-arrestin. Kind of assay: cell-based. The settings on record: β-arrestin Antagonist, CHO-K1 cell line expressing human D2R/β-arrestin; quinpirole used as agonist.
Protocol: (§1) The detection reagents are then added, and the read-out is detected.
(§2) Cells were prepared for assays by growing cultures for up to 2 weeks (from about 6-20 passages). A vial of frozen cells was thawed in a water bath held at 37° C. The cells were then transferred into a 50 ml tube with 10 ml growth media. The vial was rinsed with growth media and the contents transferred to the 50 ml tube. The 50 ml tube was centrifuged at 1200 rpm for 5 minutes at room temperature. […] When the cells reached about 90% confluence (approximately 3 days between passages), the cells were passaged and used for either the agonist or antagonist assays as described below.
The cells were prepared for β-arrestin assays as described above. The assays were performed using a PathHunter® β-Arrestin Detecting Kit (DiscoveRX). The cells were grown on 225 mm dishes, then washed once with 1×PBS (Cellgro), followed by digestion with 2.5 ml 1× Detachment reagent (DRX 92-0009) for approximately 2 minutes.
Assay [4] has as its target T1, human D2R/β-arrestin. In words: cell-based. Particulars: cAMP Antagonist, CHO-K1 cell line expressing human D2R/β-arrestin; quinpirole used as agonist.
Protocol: as §1, §2
The cells were prepared for Gi/cAMP assays as described above. The assays were performed using a PE Lance Ultra cAMP kit (TRF0263). The cells were grown on 225 mm dishes, then washed once with 1×PBS (Cellgro) before digestion with 2.5 ml 1× Detachment reagent (DRX 92-0009) for about 2 minutes. PBS (20 ml) was then added to the plate, and the cells were transferred to a 50 ml centrifuge tube, and centrifuged at room temperature using BD Dynac III, at 1200 rpm for 5 minutes. […] The plates were then incubated at room temperature for about 30 minutes before addition of Eu-cAMP tracer solution (100, PerkinElmer) and then ULight-anti-cAMP solution (100) to each well.

Each structure is given as a SMILES string.

T1 sequence (P14416 whole entry): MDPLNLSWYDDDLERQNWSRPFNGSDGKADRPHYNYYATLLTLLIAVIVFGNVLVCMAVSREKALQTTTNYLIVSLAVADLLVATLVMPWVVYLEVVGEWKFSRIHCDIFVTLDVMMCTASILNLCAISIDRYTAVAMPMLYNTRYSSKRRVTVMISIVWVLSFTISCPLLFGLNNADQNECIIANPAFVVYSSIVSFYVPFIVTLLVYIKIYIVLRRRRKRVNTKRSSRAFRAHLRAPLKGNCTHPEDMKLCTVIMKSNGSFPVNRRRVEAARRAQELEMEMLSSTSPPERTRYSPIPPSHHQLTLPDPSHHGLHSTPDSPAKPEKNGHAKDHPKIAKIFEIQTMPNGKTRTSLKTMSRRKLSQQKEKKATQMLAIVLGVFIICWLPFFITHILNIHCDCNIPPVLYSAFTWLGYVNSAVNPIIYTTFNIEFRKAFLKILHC

Usually EC50 stands for the concentration needed to bring the measured effect to its halfway point. Higher therefore signals a need for much substance. By IC50 is commonly meant the concentration at which inhibition is half-maximal. Read a low IC50 as inhibition by little substance. On to `COc1cccc(C(NC(=O)C2CCN(CCOc3ccc4ncsc4c3)CC2)c2ccccn2)c1` (stereo not drawn) [Compound 82, 1-(2-(benzo[d]thiazol-6-yloxy)ethyl)-N-((3-methoxyphenyl)(pyridin-2-yl)methyl)piperidine-4-carboxamide], for which the concentration for a half-maximal effect (EC50) on human D2R/β-arrestin [1] and at human D2R/β-arrestin [2] was greater than 30000 nM in each case. Further, the results for the IC50 at human D2R/β-arrestin [3] and on human D2R/β-arrestin [4] were 10000 to 30000 nM and 1000 to 10000 nM, respectively.
As to `O=C(NC(c1ccc(F)cc1)c1ccc(F)cc1)C1CCN(CCOc2ccccc2Cl)CC1` [Compound 83, N-(bis(4-fluorophenyl)methyl)-1-(2-(2-chlorophenoxy)ethyl)piperidine-4-carboxamide], the EC50 at human D2R/β-arrestin [1] and on human D2R/β-arrestin [2] was greater than 30000 nM each time. Moreover, the IC50 at human D2R/β-arrestin [3] and on human D2R/β-arrestin [4] was less than 100 nM in each case.
`O=C(NC(c1ccccc1F)c1ccccc1F)C1CCN(CCOc2ccccc2Cl)CC1` [Compound 84, N-(bis(2-fluorophenyl)methyl)-1-(2-(2-chlorophenoxy)ethyl)piperidine-4-carboxamide]: the EC50 on human D2R/β-arrestin [1] and on human D2R/β-arrestin [2] was greater than 30000 nM each time. Also, the IC50 on human D2R/β-arrestin [3] and at human D2R/β-arrestin [4] was 100 to 1000 nM each time.
For the compound `O=C(NC(c1ccc(F)cc1)c1ccccc1F)C1CCN(CCOc2ccccc2Cl)CC1` (stereo not drawn) [Compound 85, 1-(2-(2-chlorophenoxy)ethyl)-N-((2-fluorophenyl)(4-fluorophenyl)methyl)piperidine-4-carboxamide], the EC50 at human D2R/β-arrestin [1] and at human D2R/β-arrestin [2] was greater than 30000 nM throughout. The concentration for half-maximal inhibition (IC50) on human D2R/β-arrestin [3] and at human D2R/β-arrestin [4] was less than 100 nM in each case.
On to `COc1cccc(C(NC(=O)C2CCN(CCOc3ccccc3Cl)CC2)c2ccccc2F)c1` (stereo not drawn) [Compound 86, 1-(2-(2-chlorophenoxy)ethyl)-N-((2-fluorophenyl)(3-methoxyphenyl)methyl)piperidine-4-carboxamide], for which the EC50 on human D2R/β-arrestin [1] and at human D2R/β-arrestin [2] was greater than 30000 nM throughout. Also, the IC50 on human D2R/β-arrestin [3] and on human D2R/β-arrestin [4] was less than 100 nM each time.
Turning to `Fc1ccccc1OCCN1CCC(CNC(c2ccc(Cl)cc2)c2ccccc2F)CC1` (stereo not drawn) [Compound 87, 1-(4-chlorophenyl)-N-((1-(2-(2-fluorophenoxy)ethyl)piperidin-4-yl)methyl)-1-(2-fluorophenyl)methanamine], the concentration for a half-maximal effect (EC50) at human D2R/β-arrestin [1] and on human D2R/β-arrestin [2] was greater than 30000 nM each time. The IC50 at human D2R/β-arrestin [3] and at human D2R/β-arrestin [4] was 100 to 1000 nM in each case.
For `Fc1ccc(F)c(OCCN2CCC(CNC(c3ccc(Cl)cc3)c3ccccn3)CC2)c1` (stereo not drawn) [Compound 89, 1-(4-chlorophenyl)-N-((1-(2-(2,5-difluorophenoxy)ethyl)piperidin-4-yl)methyl)-1-(pyridin-2-yl)methanamine], the EC50 on human D2R/β-arrestin [1] and on human D2R/β-arrestin [2] was greater than 30000 nM in each case. The IC50 at human D2R/β-arrestin [3] and at human D2R/β-arrestin [4] was 100 to 1000 nM each time.
For the compound `COc1cccc(C(NC(=O)C2CCN(CCOc3cc(F)ccc3F)CC2)c2ccccn2)c1` (stereo not drawn) [Compound 90, 1-(2-(2,5-difluorophenoxy)ethyl)-N-((3-methoxyphenyl)(pyridin-2-yl)methyl) piperidine-4-carboxamide], the values for the EC50 on human D2R/β-arrestin [1] and at human D2R/β-arrestin [2] were greater than 30000 nM and 1000 to 10000 nM, respectively. Besides, the IC50 at human D2R/β-arrestin [3] and on human D2R/β-arrestin [4] was 1000 to 10000 nM throughout.
Regarding `O=C(NC(c1ccc(Cl)cc1)c1ccncc1F)C1CCN(CCOc2ccccc2F)CC1` (stereo not drawn) [Compound 91, N-((4-chlorophenyl)(3-fluoropyridin-4-yl)methyl)-1-(2-(2-fluorophenoxy)ethyl)piperidine-4-carboxamide], the concentration for a half-maximal effect (EC50) was greater than 30000 nM on human D2R/β-arrestin [1] and 100 to 1000 nM on human D2R/β-arrestin [2]. Besides, the IC50 on human D2R/β-arrestin [3] and at human D2R/β-arrestin [4] was 100 to 1000 nM in each case.
Turning to `O=C(NC(c1ccc2c(c1)OC(F)(F)O2)c1ccccn1)C1CCN(CCOc2ccccc2F)CC1` (stereo not drawn) [Compound 94, N-((2,2-difluorobenzo[d][1,3]dioxol-5-yl)(pyridin-2-yl)methyl)-1-(2-(2-fluorophenoxy)ethyl)piperidine-4-carboxamide], the results for the EC50 on human D2R/β-arrestin [1] and on human D2R/β-arrestin [2] were 100 to 1000 nM and less than 100 nM, respectively. Further, the values for the IC50 at human D2R/β-arrestin [3] and at human D2R/β-arrestin [4] were 100 to 1000 nM and greater than 30000 nM, respectively.
Regarding `CC(C1CCN(CCOc2ccccc2)CC1)N(C)C(c1ccc(Cl)cc1)c1ccccn1` (stereo not drawn) [Compound 97, N-((4-chlorophenyl)(pyridin-2-yl)methyl)-N-methyl-1-(1-(2-phenoxyethyl)piperidin-4-yl)ethan-1-amine], the EC50 at human D2R/β-arrestin [1] and at human D2R/β-arrestin [2] was greater than 30000 nM throughout. Moreover, the IC50 on human D2R/β-arrestin [3] and on human D2R/β-arrestin [4] was less than 100 nM in each case.
Turning to `Clc1ccc(C(c2ccccn2)N2CC3CCN(CCOc4ccccc4)CC3C2)cc1` (stereo not drawn) [Compound 98, 2-((4-chlorophenyl)(pyridin-2-yl)methyl)-5-(2-phenoxyethyl)octahydro-1H-pyrrolo[3,4-c]pyridine], the EC50 was 100 to 1000 nM on human D2R/β-arrestin [1] and less than 100 nM on human D2R/β-arrestin [2]. Besides, the IC50 at human D2R/β-arrestin [3] and at human D2R/β-arrestin [4] was greater than 30000 nM each time.
Take `CC1(CNC(c2ccc(F)cc2)c2ccccn2)CCN(CCOc2ccccc2C(F)(F)F)CC1` (stereo not drawn) [Compound 101, 1-(4-fluorophenyl)-N-((4-methyl-1-(2-(2-(trifluoromethyl)phenoxy)ethyl)piperidin-4-yl)methyl)-1-(pyridin-2-yl)methanamine]: the EC50 on human D2R/β-arrestin [1] and on human D2R/β-arrestin [2] was greater than 30000 nM each time. Moreover, the IC50 was 100 to 1000 nM on human D2R/β-arrestin [3] and less than 100 nM at human D2R/β-arrestin [4].
In the case of `c1ccc(OCCN2CCC(CNC(c3ccc4c(c3)OCO4)c3ccccn3)CC2)cc1` (stereo not drawn) [Compound 102, 1-(benzo[d][1,3]dioxol-5-yl)-N-((1-(2-phenoxyethyl)piperidin-4-yl)methyl)-1-(pyridin-2-yl)methanamine], the EC50 was greater than 30000 nM at human D2R/β-arrestin [1] and 100 to 1000 nM on human D2R/β-arrestin [2]. Also, the IC50 on human D2R/β-arrestin [3] and at human D2R/β-arrestin [4] was 100 to 1000 nM throughout.
Take `FC(F)(F)c1ccccc1OCCN1CCC2(CC1)CCN(C(c1ccc(Cl)cc1)c1ccccn1)C2` (stereo not drawn) [Compound 106, 2-((4-chlorophenyl)(pyridin-2-yl)methyl)-8-(2-(2-(trifluoromethyl)phenoxy)ethyl)-2,8-diazaspiro[4.5]decane]: the EC50 at human D2R/β-arrestin [1] is greater than 30000 nM; at human D2R/β-arrestin [2] it was 1000 to 10000 nM. The IC50 was in the range of 100 to 1000 nM at human D2R/β-arrestin [3] and 1000 to 10000 nM at human D2R/β-arrestin [4].
For `CC(=O)N(CC1CCN(CCOc2ccccc2)CC1)C(c1ccc(Cl)cc1)c1ccccn1` (stereo not drawn) [Compound 107, N-((4-chlorophenyl)(pyridin-2-yl)methyl)-N-((1-(2-phenoxyethyl)piperidin-4-yl)methyl) acetamide], the concentration giving a half-maximal response (EC50) at human D2R/β-arrestin [1] was greater than 30000 nM; on human D2R/β-arrestin [2] it was 100 to 1000 nM. Further, the IC50 on human D2R/β-arrestin [3] is 100 to 1000 nM; on human D2R/β-arrestin [4], greater than 30000 nM.
Take `COc1ccccc1OCCN1CCC(C(=O)NCc2nccc3ccccc23)CC1` [Compound 108, N-(isoquinolin-1-ylmethyl)-1-(2-(2-methoxyphenoxy)ethyl)piperidine-4-carboxamide]: the EC50 on human D2R/β-arrestin [1] is greater than 30000 nM; on human D2R/β-arrestin [2], less than 100 nM. The IC50 was 1000 to 10000 nM on human D2R/β-arrestin [3] and greater than 30000 nM on human D2R/β-arrestin [4].
As to `O=C(NC(c1ccc(Cl)cc1)c1ccccn1)C1CCN(CCCCOc2ccccc2)CC1` (stereo not drawn) [Compound 110], the EC50 at human D2R/β-arrestin [1] and at human D2R/β-arrestin [2] was greater than 30000 nM throughout. The IC50 on human D2R/β-arrestin [3] was 1000 to 10000 nM; on human D2R/β-arrestin [4], 100 to 1000 nM.
In the case of `O=C(NC(c1ccccc1)c1ccccn1)C1CCN(CCOc2ccccc2)CC1` (stereo not drawn) [Compound 113, 1-(2-phenoxyethyl)-N-(phenyl(pyridin-2-yl)methyl)piperidine-4-carboxamide], the EC50 at human D2R/β-arrestin [1] is greater than 30000 nM; on human D2R/β-arrestin [2], less than 100 nM. The values for the IC50 at human D2R/β-arrestin [3] and at human D2R/β-arrestin [4] were 1000 to 10000 nM and greater than 30000 nM, respectively.
As to `O=C(NC(c1ccc(Cl)cc1)c1ccc(F)cn1)C1CCN(CCOc2ccccc2)CC1` (stereo not drawn) [Compound 116, N-((4-chlorophenyl)(5-fluoropyridin-2-yl)methyl)-1-(2-phenoxyethyl)piperidine-4-carboxamide], the EC50 on human D2R/β-arrestin [1] is greater than 30000 nM; on human D2R/β-arrestin [2] it was 100 to 1000 nM. Moreover, the IC50 is 1000 to 10000 nM on human D2R/β-arrestin [3] and greater than 30000 nM on human D2R/β-arrestin [4].
As for `O=C(NC(c1ccc(Cl)cc1)c1ccncc1F)C1CCN(CCOc2ccccc2)CC1` (stereo not drawn) [Compound 117, N-((4-chlorophenyl)(3-fluoropyridin-4-yl)methyl)-1-(2-phenoxyethyl) piperidine-4-carboxamide], the figures for the EC50 at human D2R/β-arrestin [1] and on human D2R/β-arrestin [2] were greater than 30000 nM and 100 to 1000 nM, respectively. The IC50 at human D2R/β-arrestin [3] is 1000 to 10000 nM; on human D2R/β-arrestin [4] it was greater than 30000 nM.
Consider `O=C(NC(c1cccc(OC(F)(F)F)c1)c1ccccn1)C1CCN(CCOc2ccccc2)CC1` (stereo not drawn) [Compound 118, 1-(2-phenoxyethyl)-N-(pyridin-2-yl(3-(trifluoromethoxy)phenyl)methyl) piperidine-4-carboxamide], for which the values for the concentration giving a half-maximal response (EC50) at human D2R/β-arrestin [1] and on human D2R/β-arrestin [2] were greater than 30000 nM and less than 100 nM, respectively. The IC50 is 1000 to 10000 nM on human D2R/β-arrestin [3] and greater than 30000 nM on human D2R/β-arrestin [4].
As for `O=C(NC(c1ccc2c(c1)OC(F)(F)O2)c1ccccn1)C1CCN(CCOc2ccccc2)CC1` (stereo not drawn) [Compound 119], the EC50 is greater than 30000 nM on human D2R/β-arrestin [1] and less than 100 nM on human D2R/β-arrestin [2]. The values for the IC50 at human D2R/β-arrestin [3] and at human D2R/β-arrestin [4] were 100 to 1000 nM and greater than 30000 nM, respectively.
On to `FC(F)(F)c1ccccc1OCCN1CCC(CNC(c2ccc(Cl)cc2)c2ccccn2)CC1` (stereo not drawn) [Compound 120, 1-(4-chlorophenyl)-1-(pyridin-2-yl)-N-((1-(2-(2-(trifluoromethyl)phenoxy)ethyl)piperidin-4-yl)methyl)methanamine], for which the EC50 on human D2R/β-arrestin [1] and on human D2R/β-arrestin [2] was greater than 30000 nM in each case. Moreover, the IC50 on human D2R/β-arrestin [3] and on human D2R/β-arrestin [4] was less than 100 nM in each case.

Source of the values: patent US10752588B2 (The Broad Institute, Inc., priority 2014, dated 2020).
